In US10441681B2, “Materials and methods for nerve grafting” (University of Florida Research Foundation, Inc., priority 2001, dated 2019):

Legend:
rat sciatic nerve [1] = assay: Human-to-rat acellular nerve xenograft model (GAP-43 axonal profiles); format: in vivo; conditions: 8-day acellular human nerve grafts in rat, 2 host rats
Protocol: In the following experiments, the hypothesis that chondroitinase treatment improves nerve regeneration through acellular human nerve grafts in a rat xenograft model was tested. Subunits (individual fascicles) taken from human nerves were treated en bloc with vehicle or chondroitinase ABC. Ten-mm interpositional nerve grafts were joined to the rat host sciatic nerve by epineurial neurorrhaphy reinforced with fibrin glue. Each of 2 host rats received bilateral grafts, one vehicle-treated and one chondroitinase-treated graft. Regeneration was initially examined after 8 days. Axonal growth was assessed at specified spatial intervals within the graft by scoring GAP-43-immunopositive profiles in transverse sections.

CSPG = assay: CSPG-neoepitope immunolabeling of injured sciatic nerve after in vivo chondroitinase injection; parameters: species or system rat; conditions: single injection 1 U in 2 μl, 2 mm distal to injury; 4 days (transection) or 2 days (crush)
Protocol: (§1) All surgical procedures were performed according to Institutional Animal Care and Use Committee (IACUC) approved protocols. Young adult SPRAGUE DAWLEY rats (HARLAN Indianapolis, Ind.) were deeply anesthetized with xylazine (15 mg/kg, i.m.) followed by ketamine-HCl (110 mg/kg, i.p.). Six animals received bilateral nerve crush injuries. Sciatic nerves were exposed and then crushed with firm pressure for thirty seconds with a DUMONT #5 forceps at a site 4 mm distal to the tendon of the internal obdurator. The crush site was marked with an epineurial suture. In a separate set of experiments, eight rats received bilateral sciatic nerve transection injuries using serrated scissors. The proximal and distal stumps were […] by epineurial neurorrhaphy using 9-0 ETHILON sutures. Fibrin glue (fibrinogen and thrombin) was then applied to stabilize the union. In both injury models, the right sciatic nerves were injected 2-mm distal to the injury with chondroitinase ABC (1 U in 2 μl) (high-purity, protease-free; SIGMA CHEMICAL CO., St. Louis, Miss.). Left sciatic nerves (with the same injury as the right side) were injected with vehicle alone (0.1% bovine serum albumin in PBS). Muscle incisions were sutured and the skin closed with metal clips. […]
Axonal regeneration was assessed by GAP-43 immunofluorescence and digital image analysis. […]

rat sciatic nerve [2] = assay: Axonal regeneration after bilateral sciatic nerve crush injury (axonotmesis); format: in vivo; conditions: two days after injury, 1 U in 2 μl injected, n=6
Protocol: as §1, with “PBS).” for “PBS). Muscle incisions were sutured and the skin closed with metal clips.”
The hypothesis that chondroitinase treatment improves axonal growth through the site of nerve crush injury was tested. […] Regenerating axons were labeled by GAP-43 immunofluorescence and scored by digital image analysis. […]

rat sciatic nerve [3] = assay: Axonal regeneration after sciatic nerve transection (neurotmesis) and neurorrhaphic repair; format: in vivo
Protocol: All surgical procedures were performed according to Institutional Animal Care and Use Committee (IACUC) approved protocols. Young adult SPRAGUE DAWLEY rats (HARLAN Indianapolis, Ind.) were deeply anesthetized with xylazine (15 mg/kg, i.m.) followed by ketamine-HCl (110 mg/kg, i.p.). Six animals received bilateral nerve crush injuries. Sciatic nerves were exposed and then crushed with firm pressure for thirty seconds with a DUMONT #5 forceps at a site 4 mm distal to the tendon of the internal obdurator. The crush site was marked with an epineurial suture. In a separate set of experiments, eight rats received bilateral sciatic nerve transection injuries using serrated scissors. The proximal and distal stumps were coated by epineurial neurorrhaphy using 9-0 ETHILON sutures. Fibrin glue (fibrinogen and thrombin) was then applied to stabilize the union. In both injury models, the right sciatic nerves were injected 2-mm distal to the injury with chondroitinase ABC (1 U in 2 μl) (high-purity, protease-free; SIGMA CHEMICAL CO., St. Louis, […].). Left sciatic nerves (with the same injury as the right side) were injected with vehicle alone (0.1% bovine serum albumin in PBS). Muscle incisions were sutured and the skin closed with metal clips. After recovery from the anesthetic, animals were returned to standard housing. Two days (for crush injury) and four days (for transection injury) after surgery, nerves were removed under anesthesia and fixed as described below. One of the eight animals receiving nerve transection and repair was excluded because loss of continuity in one nerve occurred during convalescence.
The hypothesis that chondroitinase treatment improves axonal growth through the site of nerve coaptation was tested. Bilateral neurotmesis was achieved by a scissor cut of the sciatic nerves which were then repaired by epineurial suture and fibrin glue. One nerve was injected with chondroitinase ABC and the contralateral nerve received vehicle alone. Because of the latency of regeneration after nerve transection, axonal growth across the coaptation was examined four days after injury. In control nerves, the ingress of axons occurred mainly in patches and was limited to discrete subsections of the distal nerve; otherwise only a few axons were found scattered throughout the remaining nerve cross-section, as shown in FIG. 14A. The number of axons extending farther into the distal (after 4 days) rapidly diminished and approached zero within 3 mm from the coaptation. In contrast, axon ingress into chondroitinase-treated nerves was more robust and widespread throughout the entire nerve cross-section. In 7/7 animals, the number of axons that entered the distal nerve was greater in the chondroitinase-treated nerve than in the control nerve. […]

For chondroitinase ABC, the “average number of axons (GAP-43-immunopositive profiles) entering grafts vs control grafts” value (rat sciatic nerve [1]) was “more than three-fold greater”, the “CSPG degradation in extracellular matrix around the injection site” value (CSPG) was “substantially, if not completely, degraded CSPG” and the “axonal regeneration after nerve crush injury (GAP-43 immunoreactivity)” value (rat sciatic nerve [2]) was “no significant difference”. The “axonal regeneration after nerve crush injury (GAP-43 immunoreactivity)” value (rat sciatic nerve [2]; listed as chondroitinase) was “not significantly effected”, the “propensity of axons to regrow within basal laminae of the distal nerve” value (rat sciatic nerve [3]; GAP-43/laminin double-immunolabeling) was “unaltered” and the “animals in which the number of axons entering the distal nerve was greater than in the control nerve” value (rat sciatic nerve [3]; four days after injury) was 7/7. The “score of axons immediately distal to the coaptation vs control nerves” value (rat sciatic nerve [3]; four days after transection and repair, 1 U in 2 μl injected, n=7) was “two-fold greater” and the “animals with increases greater than 3.5-fold” value (rat sciatic nerve [3]; score of axons immediately distal to the coaptation, four days) was 3/7.
